Data as given in ChEMBL document CHEMBL1255363, “In vivo efficacy of beta-cyclodextrin derivatives against anthrax lethal toxin” (Antimicrob Agents Chemother, 2008).
Calls of active or inactive are those of the source. The rule behind the calls is not given here.

Key:
[1] = test system: Bacillus anthracis; test: Antibacterial activity against Bacillus anthracis infected in Fischer 344 rat assessed as enhancement of survival rate against lethal toxin-mediated toxicity at 0.25 mg, iv coadministered along with 10 ug bacterial lethal factor measured up to 8 hrs; type: functional, organism-based
[2] = test system: Bacillus anthracis; test: Antibacterial activity against Bacillus anthracis infected in Fischer 344 rat assessed as enhancement of survival rate against lethal toxin-mediated toxicity at 0.085 mg, iv coadministered along with 10 ug bacterial lethal factor measured up to 8 hrs; type: functional, organism-based
[3] = test system: Bacillus anthracis; test: Antibacterial activity against Bacillus anthracis infected in Fischer 344 rat assessed as enhancement of survival rate against lethal toxin-mediated toxicity at 1.25 mg, iv administered 30 mins prior to 10 ug bacterial lethal factor infusion measured up to 8 hrs; type: functional, organism-based
[4] = target: T1, Lethal factor (Bacillus anthracis, UniProt P15917); test: Inhibition of Bacillus anthracis lethal factor
T1 sequence (P15917 whole entry): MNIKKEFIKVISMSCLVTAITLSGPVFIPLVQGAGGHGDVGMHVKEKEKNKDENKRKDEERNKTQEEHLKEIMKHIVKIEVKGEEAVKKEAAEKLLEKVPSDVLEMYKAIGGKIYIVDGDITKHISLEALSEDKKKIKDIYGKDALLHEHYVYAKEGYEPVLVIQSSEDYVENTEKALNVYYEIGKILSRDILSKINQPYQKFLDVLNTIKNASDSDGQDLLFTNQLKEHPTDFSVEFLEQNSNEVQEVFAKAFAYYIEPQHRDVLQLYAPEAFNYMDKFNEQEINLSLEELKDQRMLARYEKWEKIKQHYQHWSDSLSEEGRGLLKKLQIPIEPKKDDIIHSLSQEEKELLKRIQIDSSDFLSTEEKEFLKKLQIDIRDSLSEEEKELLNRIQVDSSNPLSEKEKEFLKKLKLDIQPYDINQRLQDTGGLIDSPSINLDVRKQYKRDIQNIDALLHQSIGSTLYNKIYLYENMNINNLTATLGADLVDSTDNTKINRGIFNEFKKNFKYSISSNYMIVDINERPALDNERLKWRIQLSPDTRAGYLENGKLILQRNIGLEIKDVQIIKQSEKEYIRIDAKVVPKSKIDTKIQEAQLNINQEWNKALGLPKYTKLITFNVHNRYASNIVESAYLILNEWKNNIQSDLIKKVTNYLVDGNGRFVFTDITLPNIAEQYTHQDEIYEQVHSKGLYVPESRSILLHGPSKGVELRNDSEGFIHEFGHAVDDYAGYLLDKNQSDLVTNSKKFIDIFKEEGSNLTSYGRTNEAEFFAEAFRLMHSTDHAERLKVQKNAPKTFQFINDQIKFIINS

[5] = test system: Bacillus anthracis; test: Antibacterial activity against Bacillus anthracis infected in Fischer 344 rat assessed as time to death at 0.017 mg, iv coadministered along with 10 ug bacterial lethal factor up to 8 hrs; type: functional
[6] = test system: Bacillus anthracis; test: Antibacterial activity against Bacillus anthracis infected in Fischer 344 rat assessed as enhancement of survival rate against lethal toxin-mediated toxicity at 1.25 mg, iv coadministered along with 10 ug bacterial lethal factor measured up to 8 hrs; type: functional, organism-based
[7] = test system: Bacillus anthracis; test: Antibacterial activity against Bacillus anthracis Sterne infected in DBA/2 mouse assessed survival rate at 2.5 mg/kg, iv QD for 10 days measured post last dose in presence of 50 mg/kg/day, ip ciprofloxacin; type: functional
[8] = test system: Bacillus anthracis; test: Antibacterial activity against Bacillus anthracis Sterne infected in DBA/2 mouse at 2.5 mg/kg, iv QD for 10 days measured post last dose; type: functional, organism-based; design: dose 2.5 mg/kg
[9] = test system: Bacillus anthracis; test: Antibacterial activity against Bacillus anthracis infected in Fischer 344 rat assessed as time to death at 0.25 mg, iv coadministered along with 10 ug bacterial lethal factor up to 8 hrs; type: functional

| Structure (SMILES) | Activity [1] | Activity [2] | Activity [3] | IC50 [4] [nM] | Time [5] [min] | Activity [6] | Activity [7] | Activity [8] | Time [9] [min] |
| --- | --- | --- | --- | --- | --- | --- | --- | --- | --- |
| NCc1ccc(CSC[C@H]2O[C@H]3O[C@H]4[C@H](O)[C@@H](O)[C@H](O[C@H]5[C@H](O)[C@@H](O)[C@H](O[C@H]6[C@H](O)[C@@H](O)[C@H](O[C@H]7[C@H](O)[C@@H](O)[C@H](O[C@H]8[C@H](O)[C@@H](O)[C@H](O[C@H]9[C@H](O)[C@@H](O)[C@H](O[C@H]2[C@H](O)[C@H]3O)O[C@@H]9CSCc2ccc(CN)cc2)O[C@@H]8CSCc2ccc(CN)cc2)O[C@@H]7CSCc2ccc(CN)cc2)O[C@@H]6CSCc2ccc(CN)cc2)O[C@@H]5CSCc2ccc(CN)cc2)O[C@@H]4CSCc2ccc(CN)cc2)cc1 | Active | Active | Active | 700 | 382 | – | – | – | – |
| NCCCCCCCCSC[C@H]1O[C@H]2O[C@H]3[C@H](O)[C@@H](O)[C@H](O[C@H]4[C@H](O)[C@@H](O)[C@H](O[C@H]5[C@H](O)[C@@H](O)[C@H](O[C@H]6[C@H](O)[C@@H](O)[C@H](O[C@H]7[C@H](O)[C@@H](O)[C@H](O[C@H]8[C@H](O)[C@@H](O)[C@H](O[C@H]1[C@H](O)[C@H]2O)O[C@@H]8CSCCCCCCCCN)O[C@@H]7CSCCCCCCCCN)O[C@@H]6CSCCCCCCCCN)O[C@@H]5CSCCCCCCCCN)O[C@@H]4CSCCCCCCCCN)O[C@@H]3CSCCCCCCCCN | Active | Active | Active | 300 | 623 | – | – | – | – |
| NCc1cccc(CSC[C@H]2O[C@H]3O[C@H]4[C@H](O)[C@@H](O)[C@H](O[C@H]5[C@H](O)[C@@H](O)[C@H](O[C@H]6[C@H](O)[C@@H](O)[C@H](O[C@H]7[C@H](O)[C@@H](O)[C@H](O[C@H]8[C@H](O)[C@@H](O)[C@H](O[C@H]9[C@H](O)[C@@H](O)[C@H](O[C@H]2[C@H](O)[C@H]3O)O[C@@H]9CSCc2cccc(CN)c2)O[C@@H]8CSCc2cccc(CN)c2)O[C@@H]7CSCc2cccc(CN)c2)O[C@@H]6CSCc2cccc(CN)c2)O[C@@H]5CSCc2cccc(CN)c2)O[C@@H]4CSCc2cccc(CN)c2)c1 | Active | Active | Active | 500 | 285 | Active | <=90% | Active | – |
| NCCCSC[C@H]1O[C@H]2O[C@H]3[C@H](O)[C@@H](O)[C@H](O[C@H]4[C@H](O)[C@@H](O)[C@H](O[C@H]5[C@H](O)[C@@H](O)[C@H](O[C@H]6[C@H](O)[C@@H](O)[C@H](O[C@H]7[C@H](O)[C@@H](O)[C@H](O[C@H]8[C@H](O)[C@@H](O)[C@H](O[C@H]1[C@H](O)[C@H]2O)O[C@@H]8CSCCCN)O[C@@H]7CSCCCN)O[C@@H]6CSCCCN)O[C@@H]5CSCCCN)O[C@@H]4CSCCCN)O[C@@H]3CSCCCN | inactive | – | Active | 2900 | – | Active | – | – | 130 |
